Measured values published in ChEMBL document CHEMBL6114992, “Design, synthesis, biological evaluation, and mechanism of action of new pyrazines as anticancer agents in vitro and in vivo” (Bioorg Med Chem, 2025).

Assays:
Assay type in all cases: functional, cell-based
[1] = system: SK-OV-3; experiment: Antiproliferative activity against human SK-OV-3 cells assessed as inhibition of cell growth incubated for 72 hrs by MTT assay; conditions: SK-OV-3, 72 h
[2] = system: KG-1; experiment: Antiproliferative activity against human KG-1 cells assessed as inhibition of cell growth incubated for 72 hrs by MTT assay; conditions: KG-1, 72 h
[3] = Antiproliferative activity against human SK-OV-3/Taxol cells assessed as inhibition of cell growth incubated for 72 hrs by MTT assay; conditions: SK-OV-3, 72 h
[4] = system: U-937; experiment: Antiproliferative activity against human U-937 cells assessed as inhibition of cell growth incubated for 72 hrs by MTT assay; conditions: U-937, 72 h
[5] = system: THP-1; experiment: Antiproliferative activity against human THP-1 cells assessed as inhibition of cell growth incubated for 72 hrs by MTT assay; conditions: THP-1, 72 h

| IC50 [1] [µM] | IC50 [4] [µM] | IC50 [5] [µM] | SMILES | IC50 [2] [µM] | IC50 [3] [µM] |
| --- | --- | --- | --- | --- | --- |
| 7.57 | 3.23 | 5.23 | Cc1nccnc1C(=O)/C=C/c1ccc(C(F)(F)F)cc1 | 5.66 | 8.99 |
| 3.21 | 0.76 | 1.46 | Cc1nccnc1C(=O)/C=C/c1ccc(S(C)(=O)=O)cc1 | 4.37 | 3.31 |
| 3.39 | 6.4 | 8.07 | CCN(CC)c1ccc(/C=C/C(=O)c2nccnc2C)cc1 | 7.14 | 8.29 |
| 10.1 | 23 | 19.9 | Cc1ccc(/C=C/C(=O)c2cnccn2)cc1 | 11.4 | 16.6 |
| 6.39 | 4.66 | 9.16 | Cc1nccnc1C(=O)/C=C/c1ccc(Cl)cc1Cl | 7.67 | 6.71 |
| > 50 | 4.79 | 6.55 | COc1ccc(/C=C/C(=O)c2cnccn2)cc1OC | 4.84 | > 50 |
| 10.2 | 22.6 | 5.5 | Cc1nccnc1C(=O)/C=C/c1ccccc1F | 5.38 | 10.7 |
| 4.39 | 2.41 | 2.12 | Cc1nccnc1C(=O)/C=C/c1cccc(F)c1 | 1.93 | 5.33 |
| 6.99 | 9.99 | 8.28 | CCc1nccnc1C(=O)/C=C/c1ccc(Cl)cc1Cl | 5.99 | 6.81 |
| 3.42 | 2.23 | 3.52 | CCc1nccnc1C(=O)/C=C/c1ccccc1F | 3.07 | 3.67 |
| 7.94 | 4.29 | 2.67 | CCc1nccnc1C(=O)/C=C/c1ccc(SC)cc1 | 9.34 | 8.12 |
| > 50 | 30.4 | 29.5 | CCc1nccnc1C(=O)/C=C/c1ccc(N(CC)CC)cc1 | 24.7 | > 50 |
| 8.68 | 3.43 | 4.91 | CCc1nccnc1C(=O)/C=C/c1ccccc1C | 22.9 | 10.8 |
| 15.5 | 13.7 | 16 | CC(C)(C)c1ccc(/C=C/C(=O)c2cnccn2)cc1 | 13.4 | 12.5 |
| 33 | 7.76 | 21.6 | CCc1nccnc1C(=O)/C=C/C=C/c1ccccc1 | 19.1 | 34 |
| > 50 | 39.7 | > 50 | CCc1nccnc1C(=O)/C=C/C=C/CCC=C(C)C | 35.7 | > 50 |
| 9.75 | 2.96 | 17 | Cc1nccnc1C(=O)/C=C/c1ccc(Cl)cc1 | 10.4 | 11.8 |
| 11 | 5.24 | 6.02 | CCc1nccnc1C(=O)/C=C/c1ccc(OC)cc1 | 22.7 | 9.88 |
| 3.22 | 1.23 | 1.95 | Cc1nccnc1C(=O)/C=C/c1ccccc1Br | 2.75 | 2.72 |

| IC50 [1] [µM] | IC50 [4] [µM] | IC50 [5] [µM] | SMILES | IC50 [2] [µM] | IC50 [3] [µM] |
| --- | --- | --- | --- | --- | --- |
| 3.88 | 1.93 | 5.34 | CCc1nccnc1C(=O)/C=C/c1ccc(Br)cc1 | 9.31 | 5.93 |
| 5.1 | 3.63 | 5.89 | Cc1nccnc1C(=O)/C=C/c1ccc2c(c1)OC(F)(F)O2 | 6.52 | 6.11 |
| > 50 | > 50 | 23.7 | O=C(/C=C/c1ccc(Br)cc1)c1cnccn1 | 20.4 | > 50 |
| 10.8 | 10.3 | 45.4 | Cc1nccnc1C(=O)/C=C/C=C/c1ccc(F)cc1 | 27.4 | 11.4 |
| 6.26 | 9.32 | 10.5 | CCc1nccnc1C(=O)/C=C/c1ccc(C)cc1 | 10 | 7.33 |
| 10.7 | 7.41 | 9.69 | N#Cc1cccc(/C=C/C(=O)c2cnccn2)c1 | 5.87 | 13.7 |
| 3.11 | 2.38 | 7.23 | CCc1nccnc1C(=O)/C=C/c1ccc(F)cc1 | 3.57 | 3.5 |
| 2.57 | 14.3 | 11.5 | Cc1nccnc1C(=O)/C=C/c1ccccc1N1CCOCC1 | 5.63 | 3.24 |
| 4.05 | 4.45 | 3.44 | CCc1nccnc1C(=O)/C=C/c1ccccc1N1CCOCC1 | 5.46 | 3.96 |
| 14.1 | 14 | 8.76 | O=C(/C=C/c1csc2ccccc12)c1cnccn1 | 6.08 | 15.1 |
| 7.3 | 2.13 | 4.53 | CC(/C=C/C(=O)c1nccnc1C)=C\c1ccccc1 | 4.78 | 6.45 |
| > 50 | 22.4 | 14.1 | O=C(/C=C/C=C/c1ccccc1)c1cnccn1 | 22.3 | > 50 |
| 7.98 | 5.25 | 7.16 | CCc1nccnc1C(=O)/C=C/C=C/c1ccc(F)cc1 | 6.91 | 8.25 |
| 2.02 | 1.6 | 1.35 | Cc1nccnc1C(=O)/C=C/c1cccc(Cl)c1 | 2.15 | 1.57 |
| 9.89 | 10 | 10.3 | CCc1nccnc1C(=O)/C=C/c1cccs1 | 19.6 | 10.9 |
| > 50 | 14.4 | 20.3 | O=C(/C=C/c1ccc2c(c1)OC(F)(F)O2)c1cnccn1 | 17.3 | > 50 |
| 4.26 | 0.66 | 6.22 | CCc1nccnc1C(=O)/C=C/c1cccc(F)c1 | 3.47 | 6.34 |
| 2.06 | 1.76 | 2.39 | CCc1nccnc1C(=O)/C=C/c1csc2ccccc12 | 14.4 | 2.29 |
| 11.3 | 4 | 14.5 | CCc1nccnc1C(=O)/C=C/c1cccc(Cl)c1Cl | 10.5 | 11.3 |

| IC50 [1] [µM] | IC50 [4] [µM] | IC50 [5] [µM] | SMILES | IC50 [2] [µM] | IC50 [3] [µM] |
| --- | --- | --- | --- | --- | --- |
| 1.63 | 1.58 | 1.64 | Cc1nccnc1C(=O)/C=C/c1cccc(Br)c1 | 0.08 | 1.46 |
| 10 | 6.55 | 6.22 | Cc1nccnc1C(=O)/C=C/c1ccccn1 | 5.39 | 11.1 |
| 16.9 | 9.55 | 9.14 | CCc1nccnc1C(=O)/C=C/c1ccc(-c2ccccc2)cc1 | 22.6 | 16.4 |
| 2.59 | 2.55 | 4.97 | Cc1ccccc1/C=C/C(=O)c1nccnc1C | 13 | 3.8 |
| 28.5 | 16.3 | 20.3 | Cc1cccc(/C=C/C(=O)c2cnccn2)c1 | 9.84 | 25.9 |
| > 50 | 8.31 | 6.54 | O=C(/C=C/c1ccc(Cl)cc1Cl)c1cnccn1 | 6.57 | > 50 |
| 3.08 | 2.36 | 1.76 | Cc1nccnc1C(=O)/C=C/c1ccccc1Cl | 1.26 | 2.94 |
| 3.74 | 5.48 | 5.36 | CCc1nccnc1C(=O)/C=C/c1ccc2c(c1)OC(F)(F)O2 | 9.09 | 3.72 |
| 7.18 | 11.4 | 11.8 | O=C(/C=C/c1ccccc1Cl)c1cnccn1 | 8.34 | 10.2 |
| 4.69 | 1.23 | 5.95 | CCc1nccnc1C(=O)/C=C/c1cccc(Cl)c1 | 3.66 | 5.11 |
| 29.6 | 22.8 | 19.4 | CC(/C=C/C(=O)c1cnccn1)=C\c1ccccc1 | 44.5 | 30.6 |
| 9.99 | 6.87 | 2.02 | O=C(/C=C/c1cc2c(cc1[N+](=O)[O-])OCO2)c1cnccn1 | 11 | 6.57 |
| 7.93 | 1.58 | 4.57 | CCc1nccnc1C(=O)/C=C/c1ccccc1Br | 3.58 | 8.35 |
| > 50 | 19 | 12.2 | O=C(/C=C/c1cccc(Cl)c1Cl)c1cnccn1 | 54.8 | > 50 |
| 7.08 | 2.3 | 4.7 | CCc1nccnc1C(=O)/C=C/c1ccc(Cl)cc1 | 3.67 | 6.72 |
| 2.53 | 0.62 | 0.98 | CCc1nccnc1C(=O)/C=C/c1cccc(C#N)c1 | 3.91 | 2.89 |
| 5.92 | 5.78 | 3.04 | CCc1nccnc1C(=O)/C=C/c1ccc(C(F)(F)F)cc1 | 9.21 | 7.29 |
| 30.7 | 26.1 | 30.2 | Cc1nccnc1C(=O)/C=C/c1ccc(F)cc1 | 21.7 | 29.2 |

| SMILES | IC50 [1] [µM] | IC50 [4] [µM] | IC50 [5] [µM] | IC50 [2] [µM] | IC50 [3] [µM] |
| --- | --- | --- | --- | --- | --- |
| CC[C@@]1(O)C(=O)OCc2c1cc1n(c2=O)Cc2cc3ccccc3nc2-1 [CAMPTOTHECIN] | 2.56 | – | – | – | – |
